Our source for the MIC values is DBAASP.

Values after ≈ are worked out from the molar mass of the structure shown.

A word on the MIC: it is the least concentration at which growth counts as inhibited. Read a high MIC as weaker potency.

Test systems include Streptococcus agalactiae; Escherichia coli 078; Escherichia coli UB1005; Escherichia coli ESBL 4; Escherichia coli ESBL; Candida albicans.
Test in all cases: ≥ marks a high value that may be exact or a test limit, other limits are often not marked, values filed in µg/mL are converted to µM
For test [1], the system named is Pseudomonas aeruginosa Ps4.
For test [2], the system named is Staphylococcus epidermidis ATCC 12228.
The test system of test [3] is Salmonella enterica subsp. enterica serovar Pullorum ATCC 7913.
The subject of test [4] is Streptococcus thermophilus YM-C.
The test system of test [5] is Salmonella enterica subsp. enterica serovar Typhimurium ATCC 14028.
Test [6] relates to Streptococcus agalactiae CICC 10465.
In test [7] the test system is Salmonella enterica subsp. enterica serovar Typhimurium C77-31.
Test [8] deals with Escherichia coli ATCC 25922.
In test [9] the test system is Staphylococcus aureus ATCC 29213.
For test [10], the system named is Pseudomonas aeruginosa ATCC 27853.
For test [11], the system named is Staphylococcus aureus ATCC 25923.
Test [12] concerns Lacticaseibacillus rhamnosus 7469.
For test [13], the system named is Escherichia coli ATCC 43827.
The test system of test [14] is Escherichia coli ATCC 11775.
Test [15] concerns Escherichia coli ATCC 35218.
Test [16] concerns Pseudomonas aeruginosa PAO1.
The subject of test [17] is Pseudomonas aeruginosa 910.
In test [18] the test system is Pseudomonas aeruginosa 253.
Test [19] relates to Pseudomonas aeruginosa 919.
In test [20] the test system is Enterococcus faecalis ATCC 29212.
Test [21] relates to Salmonella enterica serovar Typhimurium.
Test [22] concerns Staphylococcus epidermidis.
Test [23] concerns Pseudomonas aeruginosa H103.

In the case of `CC[C@H](C)[C@H](NC(=O)[C@H](CC(N)=O)NC(=O)[C@H](CCCN=C(N)N)NC(=O)[C@H](Cc1c[nH]c2ccccc12)NC(=O)[C@@H](N)Cc1ccccc1)C(=O)N[C@@H](CCCN=C(N)N)C(=O)N[C@@H](CCCCN)C(=O)N[C@H](C(=O)N[C@@H](CCCN=C(N)N)C(N)=O)C(C)C` [FWRNIRKVR], in test [1], the MIC is not below 196 µM.
Turning to `CC[C@H](C)[C@H](NC(=O)[C@H](CC(C)C)NC(=O)[C@@H](NC(=O)[C@@H](N)CC(=O)O)[C@@H](C)CC)C(=O)N[C@H](C(=O)N[C@H](C(=O)NCC(=O)NCC(=O)N[C@@H](CCCCN)C(=O)N[C@@H](CCCN=C(N)N)C(=O)N[C@@H](CCCN=C(N)N)C(=O)N[C@@H](CCCCN)C(=O)N[C@@H](CCCCN)C(=O)N[C@@H](CCCN=C(N)N)C(=O)N[C@@H](CCCN=C(N)N)C(=O)N[C@@H](CCCN=C(N)N)C(N)=O)C(C)C)[C@@H](C)CC` [DILIIVGGKRRKKRRR], the minimal inhibitory concentration (MIC) is 4 µM (≈ 7.85 µg/mL) in the test on Streptococcus agalactiae; 8 µM (≈ 15.7 µg/mL) in test [2]; 8 µM (≈ 15.7 µg/mL) in test [3]; not below 64 µM in test [4]; 8 µM (≈ 15.7 µg/mL) in [5]; 2 µM (≈ 3.93 µg/mL) in test [6]. For the same compound, the MIC in test [7] stood at 8 µM (≈ 15.7 µg/mL); in [8], 4 µM (≈ 7.85 µg/mL); against Escherichia coli 078 it was 8 µM (≈ 15.7 µg/mL); in [9] it was 4 µM (≈ 7.85 µg/mL); in test [10] it was 4 µM (≈ 7.85 µg/mL); in test [11], 4 µM (≈ 7.85 µg/mL). The figures for the minimal inhibitory concentration (MIC) (in the test with Escherichia coli UB1005; in [12]) were 4 µM (≈ 7.85 µg/mL) and not below 64 µM, respectively.
In the case of `CC[C@H](C)[C@H](NC(=O)[C@H](Cc1ccc(O)cc1)NC(=O)[C@H](CCC(N)=O)NC(=O)[C@H](CC(C)C)NC(=O)[C@H](C)NC(=O)[C@H](CCCCN)NC(=O)[C@H](CCCCN)NC(=O)[C@H](CCSC)NC(=O)[C@H](CCCCN)NC(=O)[C@H](CCCCN)NC(=O)[C@H](CCCCN)NC(=O)[C@@H](N)CCCN=C(N)N)C(=O)N[C@@H](CCCCN)C(=O)N[C@@H](CC(C)C)C(=O)N[C@@H](CC(C)C)C(=O)N[C@@H](CCCCN)C(=O)N[C@@H](CCC(=O)O)C(N)=O` [RKKKMKKALQYIKLLKE], the MIC in [13] was 3 µM (≈ 6.44 µg/mL); in test [14], not below 100 µM; with Escherichia coli ESBL 4, not below 100 µM; in [8], 25 µM (≈ 53.6 µg/mL); in test [10] it was 100 µM (≈ 215 µg/mL); in the test with Escherichia coli ESBL, 12.5 µM (≈ 26.8 µg/mL). The compound further yielded an MIC in test [15] of 6 µM (≈ 12.9 µg/mL).
With `CC[C@H](C)[C@H](NC(=O)[C@@H](N)Cc1ccccc1)C(=O)N[C@@H](CCCCN)C(=O)N[C@@H](Cc1c[nH]c2ccccc12)C(=O)N[C@@H](CCCN=C(N)N)C(=O)N[C@@H](CO)C(=O)N[C@@H](CCCN=C(N)N)C(=O)N[C@@H](Cc1c[nH]c2ccccc12)C(=O)N[C@@H](Cc1c[nH]c2ccccc12)C(=O)N[C@@H](CCCCN)C(=O)N[C@@H](CCCCN)C(=O)N[C@@H](CCCN=C(N)N)C(=O)N[C@H](C(N)=O)[C@@H](C)O` [FIKWRSRWWKKRT], the MIC is 4 µM (≈ 7.51 µg/mL) in test [16], 8 µM (≈ 15 µg/mL) in test [17], 16 µM (≈ 30 µg/mL) in [18] and not below 32 µM in [19].
As for `CC[C@H](C)[C@H](NC(=O)[C@H](CC(C)C)NC(=O)[C@@H](NC(=O)[C@@H](N)CC(=O)O)[C@@H](C)CC)C(=O)N[C@H](C(=O)N[C@H](C(=O)NCC(=O)NCC(=O)N[C@@H](CCCN=C(N)N)C(=O)N[C@@H](CCCN=C(N)N)C(N)=O)C(C)C)[C@@H](C)CC` [DILIIVGGRR], the minimum inhibitory concentration (MIC) was not below 64 µM in the test with Streptococcus agalactiae; more than 64 µM in test [2]; not below 64 µM in test [3]; not below 64 µM in [4]; more than 64 µM in [5]; not below 64 µM in test [6]. Besides, the MIC was not below 64 µM in test [7]; more than 64 µM in test [8]; not below 64 µM against Escherichia coli 078; more than 64 µM in [9]; more than 64 µM in [10]; more than 64 µM in test [11]. Moreover, the MIC (against Escherichia coli UB1005; in [12]) was not below 64 µM in each case.
On to `CC(C)C[C@H](NC(=O)[C@H](CCCN=C(N)N)NC(=O)[C@H](CC(C)C)NC(=O)[C@H](CC(N)=O)NC(=O)[C@H](CCCN=C(N)N)NC(=O)[C@H](CCC(N)=O)NC(=O)[C@H](Cc1c[nH]c2ccccc12)NC(=O)[C@@H](N)Cc1ccccc1)C(=O)N[C@@H](CCCN=C(N)N)C(=O)N[C@@H](CCCN=C(N)N)C(N)=O` [FWQRNLRLRR], for which the minimum inhibitory concentration (MIC) in test [1] was not below 173 µM.
With `CC[C@H](C)[C@H](NC(=O)[C@H](CCCN=C(N)N)NC(=O)[C@H](C)NC(=O)[C@H](CCCN=C(N)N)NC(=O)[C@@H](N)CCCN=C(N)N)C(=O)N[C@H](C(=O)N[C@H](C(=O)N[C@H](C(=O)N[C@@H](CCCN=C(N)N)C(=O)N[C@H](C(=O)N[C@@H](C)C(=O)N[C@@H](CCCN=C(N)N)C(N)=O)C(C)C)[C@@H](C)CC)C(C)C)C(C)C` [RRARIVVIRVAR], the MIC is 32 µM (≈ 46.8 µg/mL) in test [16]; not below 32 µM in test [17]; not below 32 µM in [18]; 10.9 µM (≈ 16 µg/mL) in test [20]; 16 µM (≈ 23.4 µg/mL) in [19]; 10.9 µM (≈ 16 µg/mL) in test [11]. In addition, the MIC in [21] was 5.46 µM (≈ 7.99 µg/mL); against Candida albicans, 5.46 µM (≈ 7.99 µg/mL); in [22], 1.37 µM (≈ 2 µg/mL); in the test on Escherichia coli UB1005, 2.73 µM (≈ 4 µg/mL); in test [23] it was 5.46 µM (≈ 7.99 µg/mL).
For `CC[C@H](C)[C@H](NC(=O)[C@H](Cc1ccc(O)cc1)NC(=O)[C@H](CCC(N)=O)NC(=O)[C@H](CC(C)C)NC(=O)[C@H](C)NC(=O)[C@H](CCCCN)NC(=O)[C@H](CCCCN)NC(=O)[C@H](CCSC)NC(=O)[C@@H](N)CCCCN)C(=O)N[C@@H](CCCCN)C(=O)N[C@@H](CC(C)C)C(=O)N[C@@H](CC(C)C)C(=O)N[C@@H](CCCCN)C(=O)N[C@@H](CCC(=O)O)C(N)=O` [KMKKALQYIKLLKE], the MIC was 25 µM (≈ 43.3 µg/mL) in test [13]; not below 100 µM in test [14]; not below 100 µM against Escherichia coli ESBL 4; 100 µM (≈ 173 µg/mL) in test [8]; more than 100 µM in [10]; not below 100 µM in the test on Escherichia coli ESBL. The same compound yielded an MIC in [15] of 25 µM (≈ 43.3 µg/mL).
